Measured values: patent publication US20100104628A1, “METHOD OF TREATING NEUROBLASTOMA” (priority 2007, published 2010)
“And” between values parts separate entries of the source, which are not always exact repeats. Identical values can stand only once. Like-named read-outs stand apart in the source and are kept apart here.

Key:
[1] = test system: MCF7 (NET 0); experiment: in vitro; assay type: cell-based, human
[2] = test system: SK-N-BE(2c) (NET ++++); experiment: cells; assay type: cell-based
[3] = test system: SK-N-SH (NET ++); experiment: Cytotoxicity, MTT assay, SK-N-SH; assay type: cell-based; conditions: 48 hr assay (24 h exposure + 24 h recovery), Table 3; read-out: Cytotoxicity IC50
[4] = in vitro; assay type: cell-based, human; conditions: human, 24 hr assay, single agent, 1% DMSO; read-out: Cytotoxicity IC50
[5] = test system: MCF7 (no NET); experiment: Glutathione depletion in vitro, MCF7; assay type: cell-based, human; conditions: 25 μM BSO, 7 hrs
Experimental: (§1) The NB cell line SK—N-BE(2c) (high net) was treated with MIBG, MIBG-disulfide dimer (MIGB-S—S-MIBG), chloromethyl-MIBG (cmMIBG), and BSO. For comparison, the human breast cancer line MCF7 (no NET) was treated with chloromethyl-MIBG and BSO. At specific times, intracellular glutathione in drug-treated cells was determined relative to that in untreated cells (control).
(§2) Cells were exposed to 5 μM chloromethyl-MIBG (cmMIBG), 25 μM BSO and a combination of 5 μM chloromethyl-MIBG+25 μM BSO (both) for 7 hrs. Compared to controls, chloromethyl-MIBG alone depleted glutathione by about 30% in SK—N—Be(2c) cells and 8% in MCF7. BSO, as expected, depleted MCF7 and SK—N—Be(2c) by similar amounts (42 and 54% of controls, respectively). In combination studies, chloromethyl-MIBG+BSO depleted levels by about 85% in the SK—N—Be(2c) cells and had much less effect on the MCF7 cells with glutathione reduced by 49% relative to controls.

[6] = test system: SK—N-BE(2c) (high NET); experiment: Glutathione depletion in vitro, SK-N-BE(2c); assay type: cell-based; conditions: 25 μM BSO, 7 hrs
Experimental: as §1
SK—N-BE(2c) (high NET) cells were treated with a single concentration of chloromethyl-MIBG (25 μM at t=0). Glutathione concentrations in treated and untreated cells were measured at t=0.5, 1, 2, 3 and 4 hrs. Glutathione levels in drug-treated cells progressively fell, with a concentration 50% that of control at t 4 hrs (FIG. 10B).
as §2

[7] = 24 hr assay, single agent, 1% DMSO, read-out: Cytotoxicity IC50
[8] = 48 hr assay (24 h exposure + 24 h recovery), Table 3, read-out: Cytotoxicity IC50

## N=C(N)NCc1cccc(I)c1 [MIBG, meta-iodobenzylguanidine]
[1]; [7]
  IC50: 227 µM and 232 µM
[1]; [8]
  IC50: 137 ± 27 µM
[2]; [7]
  IC50: 167 µM and 200 µM
[2]; [8]
  IC50: 142 ± 21 µM
[3]
  IC50: 190 ± 22 µM

## ClCc1ccccc1 [chloromethyl-benzene, benzylchloride]
[4]
  IC50 at 24 h: 390 ± 77 µM
[2]; [7]
  IC50: 172 ± 31 µM

## CCCCS(=N)(=O)CCC(N)C(=O)O (stereo not shown) [BSO, buthionine sulfoximine]
[5]
  glutathione depletion compared to controls: 42%
[6]
  glutathione depletion compared to controls: 54%

## N=C(N)NCc1ccc(CSC[C@H](NC(=O)CC[C@H](N)C(=O)O)C(=O)NCC(=O)O)c(I)c1 [MIBG-S-Glutathione]
[1]
  IC50: > 1000 µM
[2]
  IC50: 390 µM

## CCSSCc1ccc(CNC(=N)N)cc1I [MIBG-SS-ethyl]
[1]; [8]
  IC50: 24.2 ± 7.21 µM
[2]; [8]
  IC50: 27.4 ± 4.09 µM
